pIC50: −log10 of the molar value.

In the first experiment the target is T1, Calpain I (Homo sapiens, UniProt P07384).
T1 construct: made in house
T1 sequence (P07384 1-714): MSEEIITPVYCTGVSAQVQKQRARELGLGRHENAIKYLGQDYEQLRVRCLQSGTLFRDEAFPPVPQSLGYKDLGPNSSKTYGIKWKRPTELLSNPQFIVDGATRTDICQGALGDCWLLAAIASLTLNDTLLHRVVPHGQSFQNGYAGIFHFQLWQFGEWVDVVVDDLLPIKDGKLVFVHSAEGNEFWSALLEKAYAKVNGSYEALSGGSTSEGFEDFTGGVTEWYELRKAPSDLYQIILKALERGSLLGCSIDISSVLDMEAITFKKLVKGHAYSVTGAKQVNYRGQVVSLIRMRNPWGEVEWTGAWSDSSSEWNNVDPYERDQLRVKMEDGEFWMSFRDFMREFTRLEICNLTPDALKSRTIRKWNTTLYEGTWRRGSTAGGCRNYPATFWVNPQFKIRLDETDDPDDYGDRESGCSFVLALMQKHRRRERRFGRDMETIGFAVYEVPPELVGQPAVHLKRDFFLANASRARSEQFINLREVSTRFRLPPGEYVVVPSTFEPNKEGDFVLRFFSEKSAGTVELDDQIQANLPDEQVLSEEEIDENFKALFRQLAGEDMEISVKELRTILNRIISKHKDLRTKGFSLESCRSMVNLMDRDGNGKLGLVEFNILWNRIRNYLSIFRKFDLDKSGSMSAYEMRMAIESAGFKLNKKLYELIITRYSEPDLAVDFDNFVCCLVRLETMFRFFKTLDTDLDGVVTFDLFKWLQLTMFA
T1 sequence (P04632 1-268 partner): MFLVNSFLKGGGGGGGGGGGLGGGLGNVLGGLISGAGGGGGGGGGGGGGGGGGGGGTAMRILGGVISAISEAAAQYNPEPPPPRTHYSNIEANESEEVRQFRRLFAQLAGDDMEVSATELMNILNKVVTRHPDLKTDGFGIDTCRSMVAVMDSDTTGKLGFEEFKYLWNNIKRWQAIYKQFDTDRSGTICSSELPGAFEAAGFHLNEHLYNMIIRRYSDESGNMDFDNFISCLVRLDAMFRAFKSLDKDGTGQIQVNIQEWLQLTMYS
In words: Inhibition of calpain I activity (Succ-Leu-Tyr-MNA substrate hydrolysis, fluorescence). Type of experiment: biochemical. The conditions noted are these: Table II; calpain I, 0.2 mM Succ-Leu-Tyr-MNA, pH 7.5; * mixture of diastereomers, a,b single diastereomers; read-out: IC50. The protocol:
To evaluate inhibitory activity, stock solutions (40 times concentrated) of each compound to be tested were prepared in 100% anhydrous DMSO and […] of each inhibitor preparation were aliquoted into each of three wells of a 96-well plate. Calpain I, prepared by a modification of the method of W. J. Lee et al. (Biochem. […] To start the reaction, […] of 50 mM CaCl2 in assay buffer was added to each of the wells of the plate, excepting three, which were used as background signal baseline controls. Substrate hydrolysis was monitored every 5 minutes for a total of 30 minutes using a Fluoroskan II fluorescence plate reader. […] Inhibition of calpain I activity was calculated as the percent decrease in the rate of substrate hydrolysis in the presence of inhibitor relative to the rate in its absence. Comparison between the inhibited and control rates was made within the linear range for substrate hydrolysis. For screening, compounds were tested at […]. […] The results were plotted as percent inhibition versus log inhibitor concentration, and the IC50 was calculated from linear regression of the data.
`CN1C(C(=O)N[C@H](C=O)Cc2ccccc2)Cc2cc(N3CCOCC3)ccc2S1(=O)=O` (stereo partly drawn) [Cpd 12aa, N-(3,4-Dihydro-6-(4-morpholino)-2-methyl-2H-1,2-benzothiazine-3-carbonyl)-L-phenylalaninal 1,1-dioxide]: the pIC50 was 7.52.

For the compound `COc1cc2c(cc1OC)S(=O)(=O)NC(C(=O)N[C@H](C=O)Cc1ccccc1)C2` (single isomer, unassigned) [Cpd 12d, N-(3,4-Dihydro-6,7-dimethoxy-2H-1,2-benzothiazine-3-carbonyl)-L-phenylalaninal 1,1-dioxide], the pIC50 was ~6.15.

`CN1C(C(=O)N[C@H](C=O)CCCCNS(=O)(=O)c2ccccc2)Cc2cc3c(cc2S1(=O)=O)OCCO3` (stereo partly drawn) [Cpd 12y, Nα -(3,4-Dihydro-6,7-ethylenedioxy-2-methyl-2H-1,2-benzothiazine-3-carbonyl)-L-Nε -(benzenesulfonyl)lysinal 1,1-dioxide]: the pIC50 is 6.97.

In the case of `COc1cc2c(cc1OC)S(=O)(=O)N(Cc1ccccc1)C(C(=O)N[C@H](C=O)Cc1ccccc1)C2` (stereo partly drawn) [Cpd 12g, N-(2-Benzyl-3,4-dihydro-6,7-dimnethoxy-2H-1,2-benzothiazine-3-carbonyl)-L-phenylalaninal 1,1-dioxide], the pIC50 was ~6.00.

Regarding `CN1C(C(=O)N[C@H](C=O)Cc2ccccc2)Cc2cc(Cl)ccc2S1(=O)=O` (stereo partly drawn) [Cpd 12q, N-(6-Chloro-3,4-dihydro-2-methyl-2H-1,2-benzothiazine-3-carbonyl)-L-phenylalaninal 1,1-dioxide], the pIC50 was 7.82.

As to `CN1C(C(=O)N[C@H](C=O)Cc2ccccc2)Cc2cc3c(cc2S1(=O)=O)OCCO3` (stereo partly drawn) [Cpd 12r, N-(3,4-Dihydro-6,7-ethylenedioxy-2-methyl-2H-1,2-benzothiazine-3-carbonyl)-L-phenylalaninal 1,1-dioxide], the pIC50 was 7.62.

For `COc1cc2c(cc1OC)S(=O)(=O)N(Cc1ccccc1)C(C(=O)N[C@H](C=O)Cc1ccccc1)C2` (stereo partly drawn) [Cpd 12h, N-(2-Benzyl-3,4-dihydro-6,7-dimethoxy-2H-1,2-benzothiazine-3-carbonyl)-L-phenylalaninal 1,1-dioxide], the pIC50 was 6.82.

Regarding `CN1C(C(=O)N[C@H](C=O)CCCCNS(=O)(=O)c2ccccc2)Cc2cc3c(cc2S1(=O)=O)OCCO3` (stereo partly drawn) [Cpd 12x, Nα -(3,4-Dihydro-6,7-ethylenedioxy-2-methyl-2H-1,2-benzothiazine-3-carbonyl)-L-Nε -(benzenesulfonyl)lysinal 1,1-dioxide], the pIC50 is 7.44.

With `COc1cc2c(cc1OC)S(=O)(=O)N(C)C(C(=O)N[C@H](C=O)Cc1ccccc1)C2` (stereo partly drawn) [Cpd 12f, N-(3,4-Dihydro-6,7-dimethoxy-2-methyl-2H-1,2-benzothiazine-3-carbonyl)-L-phenylalaninal 1,1-dioxide], the pIC50 is 7.42.

The experiment is the same for the next values; noted with them: Table III; calpain I, 0.2 mM Succ-Leu-Tyr-MNA, pH 7.5; * mixture of diastereomers, a,b single diastereomers; read-out: IC50.
In the case of `CCN1C(C(=O)N[C@@H](Cc2ccccc2)C(=O)C(=O)NCCCNS(=O)(=O)c2ccc([N+](=O)[O-])cc2)Cc2cc3c(cc2S1(=O)=O)OCCO3` (stereo partly drawn) [Cpd 14U, 3-((3,4-Dihydro-6,7-ethylenedioxy-2-ethyl-2H-1,2-benzothiazine-3-carbonyl)amino)-3-(S)-benzyl-2-oxo-N-(3-(4-nitrobenzenesulfonylamino)propyl)propanamide 1,1-dioxide], the pIC50 was 7.30.

For `CCCCNC(=O)C(=O)[C@H](Cc1ccccc1)NC(=O)C1Cc2cc3c(cc2S(=O)(=O)N1)OCCO3` (stereo partly drawn) [Cpd 14AD, N-Butyl-3-(3,4-Dihydro-6,7-ethylenedioxy-2H-1,2-benzothiazine-3-carboxamido)-2-oxo-3-(S)-benzylpropanamide 1,1-dioxide], the pIC50 is ~6.70.

`CCN1C(C(=O)N[C@@H](Cc2ccccc2)C(=O)C(=O)NCCCNS(=O)(=O)c2ccc(Cl)c(Cl)c2)Cc2cc3c(cc2S1(=O)=O)OCCO3` (stereo partly drawn) [Cpd 14W, 3-((3,4-Dihydro-6,7-ethylenedioxy-2-ethyl-2H-1,2-benzothiazine-3-carbonyl)amino)-3-(S)-benzyl-2-oxo-N-(3-(3,4-dichlorobenzenesulfonylamino)propyl)propanamide 1,1-dioxide]: the pIC50 is 7.25.

`O=C(NCCNS(=O)(=O)c1ccccc1)C(=O)[C@H](Cc1ccccc1)NC(=O)C1Cc2cc3c(cc2S(=O)(=O)N1)OCCO3` (stereo partly drawn) [Cpd 14AE, N-(2-(Benzenesulfonylamino)ethyl)-3-(3,4-Dihydro-6,7-ethylenedioxy-2H-1,2-benzothiazine-3-carboxamido)-2-oxo-3-(S)-benzylpropanamide 1,1-dioxide]: the pIC50 is 7.12.

As for `CCN1C(C(=O)N[C@@H](Cc2ccccc2)C(=O)C(=O)NCCNS(=O)(=O)c2ccc(-c3ccccn3)s2)Cc2cc3c(cc2S1(=O)=O)OCCO3` (stereo partly drawn) [Cpd 14Y], the pIC50 is 7.70.

The experiment is the same for the next values; noted with them: Table V; calpain I, 0.2 mM Succ-Leu-Tyr-MNA, pH 7.5; * mixture of diastereomers, a,b single diastereomers; read-out: IC50.
Turning to `CCCN1c2ccccc2S(=O)(=O)N(CC)C1C(=O)N[C@H](C=O)Cc1ccccc1` (single isomer, unassigned) [Cpd 35b, N-(3,4-Dihydro-2-ethyl-4-propyl-2H-1,2,4-benzothiadiazine-3-carbonyl)-L-phenylalaninal 1,1-dioxide], the pIC50 is ~5.52.

As for `CCCN1c2ccccc2S(=O)(=O)N(CC)C1C(=O)N[C@H](C=O)Cc1ccccc1` (single isomer, unassigned) [Cpd 35a, N-(3,4-Dihydro-2-ethyl-4-propyl-2H-1,2,4-benzothiadiazine-3-carbonyl)-L-phenylalaninal 1,1-dioxide], the pIC50 was ~6.00.

For the compound `CCN1C(C(=O)N[C@H](C=O)Cc2ccccc2)N(Cc2ccccc2)c2ccccc2S1(=O)=O` (single isomer, unassigned) [Cpd 35c, N-(3,4-Dihydro-2-ethyl-4-benzyl-2H-1,2,4-benzothiadiazine-3-carbonyl)-L-phenylalaninal 1,1-dioxide], the pIC50 is ~5.00.

Still in this experiment, the particulars now being: Table VI; calpain I, 0.2 mM Succ-Leu-Tyr-MNA, pH 7.5; read-out: IC50.
Regarding `CCCCNC(=O)C(=O)[C@H](Cc1ccccc1)NC(=O)C1=Nc2cc3c(cc2S(=O)(=O)N1)OCCO3` [Cpd 42d, 3-((2H-6,7-Ethylenedioxy-1,2,4-benzothiadiazine-3-carbonyl)amino)-3-(S)-benzyl-2-oxo-N-butylpropanamide 1,1-dioxide], the pIC50 is ~5.00.

Consider `CCCCNC(=O)C(=O)[C@H](Cc1ccccc1)NC(=O)C1=Nc2ccccc2S(=O)(=O)N1` [Cpd 42c, 3-((2H-1,2,4-Benzothiadiazine-3-carbonyl)amino)-3-(S)-benzyl-2-oxo-N-butylpropanamide 1,1-dioxide], for which the pIC50 was ~5.30.

`O=C[C@H](Cc1ccccc1)NC(=O)C1=Nc2ccccc2S(=O)(=O)N1` [Cpd 42a, N-(2H-1,2,4-Benzothiadiazine-3-carbonyl)-L-phenylalaninal 1,1-dioxide]: the pIC50 is 7.08.

In the case of `O=C[C@H](Cc1ccccc1)NC(=O)C1=Nc2cc3c(cc2S(=O)(=O)N1)OCCO3` [Cpd 42b, N-(2H-6,7-Ethylenedioxy-1,2,4-benzothiadiazine-3-carbonyl)-L-phenylalaninal1,1-dioxide], the pIC50 is 7.55.

The same experiment, now with this note: Table VII; calpain I, 0.2 mM Succ-Leu-Tyr-MNA, pH 7.5; a,b single diastereomers; read-out: IC50.
Turning to `O=C[C@H](Cc1ccccc1)NC(=O)C1Cc2ccccc2C(=O)N1` (single isomer, unassigned) [Cpd 50b, N-(1-Oxo-1,2,3,4-tetrahydroisoquinoline-3-carbonyl)-L-phenylalaninal], the pIC50 is ~5.30.

For `CN1C(=O)c2ccccc2CC1C(=O)N[C@H](C=O)Cc1ccccc1` (single isomer, unassigned) [Cpd 50c, N-(1-Oxo-2-methyl-1,2,3,4-tetrahydroisoquinoline-3-carbonyl)-L-phenylalaninal], the pIC50 was ~6.00.

In the case of `O=C[C@H](Cc1ccccc1)NC(=O)C1Cc2ccccc2C(=O)N1` (single isomer, unassigned) [Cpd 50a, N-(1-Oxo-1,2,3,4-tetrahydroisoquinoline-3-carbonyl)-L-phenylalaninal], the pIC50 is ~5.30.

For orientation: pIC50 means the negative decadic logarithm of the IC50, by convention in mol/L.

(Values after patent US5952328A, “Benzothiazo and related heterocyclic group-containing cysteine and serine protease inhibitors” (Cephalon, Inc., priority 1997, dated 1999).)
